Columns and labels:
[1] = biological target: T1, human CYP11B2 (Homo sapiens, UniProt P19099); test: Inhibition of hCYP11B2 in transfected V79 cells; format: cell-based; conditions: hamster V79 cells expressing human CYP11B2; substrate 11-deoxycorticosterone 200 nM
T1 construct: expressed in transfected cells
T1 sequence (P19099 25-503): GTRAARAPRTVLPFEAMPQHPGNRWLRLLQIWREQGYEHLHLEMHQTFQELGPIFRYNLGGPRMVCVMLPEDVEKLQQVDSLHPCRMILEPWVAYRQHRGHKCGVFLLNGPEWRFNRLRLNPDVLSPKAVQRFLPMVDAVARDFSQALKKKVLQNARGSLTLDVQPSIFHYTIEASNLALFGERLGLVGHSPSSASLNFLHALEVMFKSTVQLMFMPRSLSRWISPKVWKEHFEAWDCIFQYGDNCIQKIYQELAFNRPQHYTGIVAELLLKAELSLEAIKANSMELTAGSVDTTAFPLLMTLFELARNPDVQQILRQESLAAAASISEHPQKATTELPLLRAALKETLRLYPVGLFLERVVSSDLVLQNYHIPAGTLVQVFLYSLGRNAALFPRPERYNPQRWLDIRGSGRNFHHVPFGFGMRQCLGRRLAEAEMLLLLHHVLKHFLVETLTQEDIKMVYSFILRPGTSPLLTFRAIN
Procedure, shortened: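 Hamster V79 cells stably co-expressing human CYP11B2 and rat NADPH-P450 reductase were pre-incubated with compounds for 2 hours, then given 200 nM 11-deoxycorticosterone for 30 minutes before ethyl acetate quench. Substrate and product were quantified by LC-MS/MS or HPLC at 260 nm, and IC50 was derived from percent inhibition.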

[2] = biological target: T2, human CYP11B1 (Homo sapiens, UniProt P15538); test: Inhibition of hCYP11B1 in transfected V79 cells; format: cell-based; conditions: hamster V79 cells expressing human CYP11B1; substrate 11-deoxycortisol 200 nM
T2 construct: expressed in transfected cells
T2 sequence (P15538 25-503): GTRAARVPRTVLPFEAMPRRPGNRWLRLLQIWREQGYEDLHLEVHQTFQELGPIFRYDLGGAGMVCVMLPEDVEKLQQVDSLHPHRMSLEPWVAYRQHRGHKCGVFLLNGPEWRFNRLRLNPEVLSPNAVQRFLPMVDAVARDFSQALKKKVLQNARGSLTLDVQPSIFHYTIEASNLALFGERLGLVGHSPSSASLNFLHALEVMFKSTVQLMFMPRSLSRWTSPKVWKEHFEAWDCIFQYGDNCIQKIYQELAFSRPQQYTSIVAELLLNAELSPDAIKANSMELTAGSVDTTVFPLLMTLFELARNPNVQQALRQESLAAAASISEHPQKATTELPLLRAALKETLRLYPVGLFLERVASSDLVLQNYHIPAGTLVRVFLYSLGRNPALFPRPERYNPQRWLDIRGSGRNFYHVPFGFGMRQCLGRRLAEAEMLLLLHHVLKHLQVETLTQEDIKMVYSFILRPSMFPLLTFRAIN
Procedure, shortened: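 V79 hamster cells stably expressing human CYP11B1 and rat NADPH-P450 reductase were preincubated with compounds for 2 h. 11-Deoxycortisol (200 nM) was then added as substrate for 30 min before ethyl acetate quench. Substrate and product were quantified by LC-MS/MS or HPLC at 260 nm, and IC50 was derived from percent inhibition.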

SMILES: N#Cc1ccc(-c2cncc3c2OCCN3C(=O)C2CN(S(=O)(=O)c3ccc(C#N)cc3)C2)cc1 [O75, 4-((3-(8-(4-Cyanophenyl)-3,4-dihydro-2H-pyrido[4,3-b][1,4]oxazine-4-carbonyl)azetidin-1-yl)sulfonyl)benzonitrile]
- IC50 [1]: 1.3 nM
- IC50 [2]: 89 nM

SMILES: Cc1ccccc1C(=O)N1CCSc2c(-c3ccc(C#N)cc3)cncc21 [S90, 4-(4-(2-Methylbenzoyl)-3,4-dihydro-2H-pyrido[4,3-b][1,4]thiazin-8-yl)benzonitrile]
- IC50 [1]: 64 nM
- IC50 [2]: 4440 nM

SMILES: COc1ccc(C(=O)N2CCc3c(-c4ccc(C#N)cc4)cncc32)cc1 [C24, 4-(1-(4-Methoxybenzoyl)-2,3-dihydro-1H-pyrrolo[2,3-c]pyridin-4-yl)benzonitrile]
- IC50 [1]: 2.3 nM
- IC50 [2]: 124 nM

SMILES: N#Cc1ccc(-c2cncc3c2ccn3S(=O)(=O)c2cccc3ccccc23)cc1 [E15, 4-(1-(Naphthalen-1-ylsulfonyl)-1H-pyrrolo[2,3-c]pyridin-4-yl)benzonitrile]
- IC50 [1]: 0.4 nM
- IC50 [2]: 0.7 nM

SMILES: N#Cc1ccc(C(=O)N2CCc3c(-c4ccc(C#N)cc4)cncc32)cc1 [C48, 4-(1-(4-Cyanobenzoyl)-2,3-dihydro-1H-pyrrolo[2,3-c]pyridin-4-yl)benzonitrile]
- IC50 [1]: 7.3 nM
- IC50 [2]: 762 nM

SMILES: N#Cc1ccc(-c2cncc3c2OCCN3C(=O)Cc2cccc(Cl)c2)cc1 [O39, 4-(4-(2-(3-Chlorophenyl)acetyl)-3,4-dihydro-2H-pyrido[4,3-b][1,4]oxazin-8-yl)benzonitrile]
- IC50 [1]: 2.6 nM
- IC50 [2]: 142 nM

SMILES: O=S(=O)(c1ccc(O)nc1)N1CCSc2c(-c3cc4cc(Cl)ccc4o3)cncc21 [S54, 5-((8-(5-Chlorobenzofuran-2-yl)-2,3-dihydro-4H-pyrido[4,3-b][1,4]thiazin-4-yl)sulfonyl) pyridin-2-ol]
- IC50 [1]: 16 nM
- IC50 [2]: 549 nM

SMILES: N#Cc1ccc(-c2cncc3c2ccn3S(=O)(=O)c2ccccc2)cc1 [E3, 4-(1-(Phenylsulfonyl)-1H-pyrrolo[2,3-c]pyridin-4-yl)benzonitrile]
- IC50 [1]: 0.4 nM
- IC50 [2]: 0.3 nM

SMILES: N#Cc1ccc(-c2cncc3c2ccn3S(=O)(=O)c2cccc(C#N)c2)cc1 [E10, 3-((4-(4-Cyanophenyl)-1H-pyrrolo[2,3-c]pyridin-1-yl)sulfonyl)benzonitrile]
- IC50 [1]: 0.6 nM
- IC50 [2]: 0.3 nM

SMILES: O=C(c1ccccc1F)N1CCc2c(-c3cc4ccccc4o3)cncc21 [C60, (4-(Benzofuran-2-yl)-2,3-dihydro-1H-pyrrolo[2,3-c]pyridin-1-yl)(2-fluorophenyl)methanone]
- IC50 [1]: 152 nM
- IC50 [2]: > 10000 nM

SMILES: N#Cc1ccc(-c2cncc3c2SCCN3S(=O)(=O)c2cccc(C#N)c2)cc1 [S20, 3-((8-(4-Cyanophenyl)-2,3-dihydro-4H-pyrido[4,3-b][1,4]thiazin-4-yl)sulfonyl)benzonitrile]
- IC50 [1]: 0.1 nM
- IC50 [2]: 3.1 nM

SMILES: N#Cc1ccc(-c2cncc3c2ccn3C(=O)c2ccccc2C(F)(F)F)cc1 [E26, 4-(1-(2-(Trifluoromethyl)benzoyl)-1H-pyrrolo[2,3-c]pyridin-4-yl)benzonitrile]
- IC50 [1]: 3.9 nM
- IC50 [2]: 88 nM

SMILES: N#Cc1ccc(-c2cncc3c2ccn3S(=O)(=O)c2cccc(F)c2)cc1 [E12, 4-(1-((3-Fluorophenyl)sulfonyl)-1H-pyrrolo[2,3-c]pyridin-4-yl)benzonitrile]
- IC50 [1]: 0.3 nM
- IC50 [2]: 0.5 nM

SMILES: N#Cc1ccc(-c2cncc3c2CCN3C(=O)Cc2ccc(C(F)(F)F)cc2)cc1 [C75, 4-(1-(2-(4-(Trifluoromethyl)phenyl)acetyl)-2,3-dihydro-1H-pyrrolo[2,3-c]pyridin-4-yl)benzonitrile]
- IC50 [1]: 35 nM
- IC50 [2]: 111 nM

SMILES: N#Cc1ccc(-c2cncc3c2CCN3S(=O)(=O)c2ccc(C#N)cc2)cc1 [C15, 4-((4-(4-Cyanophenyl)-2,3-dihydro-1H-pyrrolo[2,3-c]pyridin-1-yl)sulfonyl)benzonitrile]
- IC50 [1]: 0.28 nM
- IC50 [2]: 0.16 nM

SMILES: N#Cc1ccc(-c2cncc3c2OCCN3C(=O)c2cccc(C(F)(F)F)c2)cc1 [O25, 4-(4-(3-(Trifluoromethyl)benzoyl)-3,4-dihydro-2H-pyrido[4,3-b][1,4]oxazin-8-yl)benzonitrile]
- IC50 [1]: 18.1 nM
- IC50 [2]: 476 nM

SMILES: N#CN1CC2(C1)CN(c1cncc3c1OCCN3C(=O)C1CN(Cc3cccc(F)c3)C1)C2 [O134, 6-(4-(1-(3-Fluorobenzyl)azetidine-3-carbonyl)-3,4-dihydro-2H-pyrido[4,3-b][1,4]oxazin-8-yl)-2,6-diazaspiro[3.3]heptane-2-carbonitrile]
- IC50 [1]: 52 nM
- IC50 [2]: 3580 nM

SMILES: N#Cc1ccc(S(=O)(=O)N2CCSc3c(-c4ccc5ncsc5c4)cncc32)cc1 [S46, 4-((8-(Benzo[d]thiazol-6-yl)-2,3-dihydro-4H-pyrido[4,3-b][1,4]thiazin-4-yl)sulfonyl)benzonitrile]
- IC50 [1]: 2.8 nM
- IC50 [2]: 322 nM

SMILES: COc1ccc(S(=O)(=O)N2CCOc3c(-c4ccc(C#N)cc4)cncc32)cc1 [O8, 4-(4-((4-Methoxyphenyl)sulfonyl)-3,4-dihydro-2H-pyrido[4,3-b][1,4]oxazin-8-yl)benzonitrile]
- IC50 [1]: 0.02 nM
- IC50 [2]: 0.02 nM

SMILES: N#Cc1ccc(S(=O)(=O)N2CCSc3c(-c4ccc5c(c4)CC(=O)N5)cncc32)cc1 [S51, 4-((8-(2-Oxoindolin-5-yl)-2,3-dihydro-4H-pyrido[4,3-b][1,4]thiazin-4-yl)sulfonyl)benzonitrile]
- IC50 [1]: 10.3 nM
- IC50 [2]: 1970 nM

SMILES: N#Cc1ccc(-c2cncc3c2SCCN3S(=O)(=O)c2cccc3ccccc23)cc1 [S22, 4-(4-(Naphthalen-1-ylsulfonyl)-3,4-dihydro-2H-pyrido[4,3-b][1,4]thiazin-8-yl)benzonitrile]
- IC50 [1]: 5.2 nM
- IC50 [2]: 51 nM

SMILES: N#Cc1ccc(-c2cncc3c2CCN3S(=O)(=O)c2cccc(Cl)c2)cc1 [C14, 4-(1-((3-Chlorophenyl)sulfonyl)-2,3-dihydro-1H-pyrrolo[2,3-c]pyridin-4-yl)benzonitrile]
- IC50 [1]: 0.5 nM
- IC50 [2]: 0.9 nM

SMILES: N#Cc1ccc(-c2cncc3c2SCCN3C(=O)c2cccc(F)c2)cc1 [S4, 4-(4-(3-Fluorobenzoyl)-3,4-dihydro-2H-pyrido[4,3-b][1,4]thiazin-8-yl)benzonitrile]
- IC50 [1]: 34.8 nM
- IC50 [2]: 1370 nM

SMILES: COc1ccc(C(=O)N2CCc3c(-c4cc5cc(C#N)ccc5o4)cncc32)cc1 [C79, 2-(1-(4-Methoxybenzoyl)-2,3-dihydro-1H-pyrrolo[2,3-c]pyridin-4-yl)benzofuran-5-carbo nitrile]
- IC50 [1]: 46 nM
- IC50 [2]: 2950 nM

SMILES: Cc1ccc(S(=O)(=O)N2CCc3c(-c4ccc(C#N)cc4)cncc32)cc1 [C1, 4-(1-Tosyl-2,3-dihydro-1H-pyrrolo[2,3-c]pyridin-4-yl)benzonitrile]
- IC50 [1]: 0.24 nM
- IC50 [2]: 0.56 nM

SMILES: COc1ccc(CN2CC(S(=O)(=O)N3CCSc4c(-c5ccc(C#N)cc5)cncc43)C2)cc1 [S84, 4-(4-((1-(4-Methoxybenzyl)azetidin-3-yl)sulfonyl)-3,4-dihydro-2H-pyrido[4,3-b][1,4]thiazin-8-yl)benzonitrile]
- IC50 [1]: 1.1 nM
- IC50 [2]: 57 nM

SMILES: Cn1ncc2ccc(-c3cncc4c3SCCN4S(=O)(=O)c3ccc(C#N)cc3)cc21 [S45, 4-((8-(1-Methyl-1H-indazol-6-yl)-2,3-dihydro-4H-pyrido[4,3-b][1,4]thiazin-4-yl)sulfonyl) benzonitrile]
- IC50 [1]: 11.6 nM
- IC50 [2]: 1460 nM

— patent US20260092074A1, “Annelated Pyridines as Steroidogenesis Inhibitors, Preparation Method and Use Thereof” (Guangzhou Vinnocent Pharmaceutical Limited, priority 2022, published 2026)
